Calls of active or inactive are those of the source. The calls are words filed in the database; no cut-off is given here.
Legend:
Lung [1] = test: Protection against pulmonary hypertension in Sugen-Hypoxia (SuHx) rat model assessed as reduction in gamma-H2AX foci in lungs; assay type: functional, tissue-based
Lung [2] = test: Protection against pulmonary hypertension in Sugen-Hypoxia (SuHx) rat model assessed as reduction in 53BP1 foci in lungs; assay type: functional, tissue-based
Liver = test: Hepatotoxicity in rats at 0.15 to 1.5 mg administered via instillation in to trachea; assay type: toxicity; conditions: rat, in vivo, inhaled_or_intranasal; dose 0.15-1.5 mg

## CCc1oc2ccccc2c1C(=O)c1ccc(O)cc1 [BENZARONE]
Lung [1]
  Activity: Active
Lung [2]
  Activity: Active
Liver
  Activity: Non-Toxic
